Source: patent US8168164B2, “Targeted conjugates and radiation” (Purdue Research Foundation, priority 2006, dated 2012)

Columns and labels:
Format in all cases: in vivo, mice
M109 cells [1] = test: Effect on non-irradiated tumors (tumor volume, two tumor sites); details: folate-FITC
Method: Six to eight-week old (˜20-22 grams) female Balb/c mice were immunized subcutaneously at multiple sites with fluorescein (FITC)-labeled keyhole limpet hemocyanin (KLH) and were injected with GPI-0100, a saponin adjuvant. After assuring that anti-FITC antibody titers were high in all mice (as evidenced by the results of ELISA assays of serum samples of the mice), […] the pre-immunization with FITC-KLH. M109 cells are a syngeneic lung cancer cell line that expresses high levels of the folate receptor. Cancer loci were then allowed to attach and grow. When the tumor size reached about 300 mm^2 (about 2 weeks post M109 cell injection), treatments were initiated (day 1).
[…] One group was injected subcutaneously with phosphate-buffered saline (PBS). Two other groups were injected subcutaneously with 500 nmoles/kg of folate-FITC and 20,000 IU/dose of recombinant human IL-2 in a series of 5 daily injections for three weeks (5 days on and 2 days off). The mice were also injected subcutaneously with IFN-α at 25,000 IU/dose (3 times per week for 3 weeks). […]
The efficacy of these therapies were then evaluated by monitoring tumor volumes. Tumor volumes were calculated using the equation V=a×b^2/2, where “a” is the length of the tumor and “b” is the width expressed in millimeters. The tumors were measured using calipers. […]

M109 cells [2] = test: Effect of ligand-immunogen conjugates in combination with radiation on tumor volume
Method: Six to eight-week old (˜20-22 grams) female Balb/c mice were immunized subcutaneously at multiple sites with fluorescein (FITC)-labeled keyhole limpet hemocyanin (KLH) and were injected with GPI-0100, a saponin adjuvant. After assuring that anti-FITC antibody titers were high in all mice (as evidenced by the results of ELISA assays of serum samples of the mice), each animal was injected subcutaneously in the shoulder with 1×10^6 M109 cells following the pre-immunization with FITC-KLH. M109 cells are a syngeneic lung cancer cell line that expresses high levels of the folate receptor. Cancer loci were then allowed to attach and grow. When the tumor size reached about 300 mm^2 (about 2 weeks post M109 cell injection), treatments were initiated (day 1).
The mice were divided into four groups (4 mice per group). One group was injected subcutaneously with phosphate-buffered saline (PBS). Two other groups were injected subcutaneously with 500 nmoles/kg of folate-FITC and 20,000 IU/dose of recombinant human IL-2 in a series of 5 daily injections for three weeks (5 days on and 2 days off). The mice were also injected subcutaneously with IFN-α at 25,000 IU/dose (3 times per week for 3 weeks). One of these groups also received a single dose of radiation of 3 Gy on day 1. The fourth group received only a single dose of radiation of 3 Gy on day 1. The radiation was performed with a device approved for human use and calibrated to give the desired radiation dose to mice.
The efficacy of these therapies were then evaluated by monitoring tumor volumes. Tumor volumes were calculated using the equation V=a×b^2/2, where “a” is the length of the tumor and “b” is the width expressed in millimeters. The tumors were measured using calipers.
The procedures were similar to those described in Example 3 except that the radiation was given in three doses of three Gy each on days 1, 5, and 12.

M109 tumors = test: Effect of ligand-immunogen conjugates in combination with taxol on tumor volume; details: folate-FITC and cytokines with 3 doses of taxol (20 mg/kg, every other day) in place of radiation

## Nc1nc2ncc(CNc3ccc(C(=O)NC(CCC(=O)NCCNC(=S)Nc4ccc(C(=O)O)c(-c5c6ccc(=O)cc-6oc6cc(O)ccc56)c4)C(=O)O)cc3)nc2c(=O)[nH]1 (stereo not drawn) [folate-FITC]
M109 cells [1]; cytokines and radiation (3 Gy days 1 and 5 on tail tumor only), 6 mice per group
  mice completely tumor-free after treatment: Two out of six mice
M109 cells [1]; cytokines and radiation, tail tumor irradiated days 1 and 5 with 3 Gy per dose, neck tumor not irradiated
  response of tumors on the same animal that were not irradiated (FIG. 4): improved response
M109 cells [2]; 500 nmoles/kg folate-FITC + IL-2 20,000 IU/dose + IFN-α 25,000 IU/dose s.c., 3 weeks, single dose of radiation of 3 Gy on day 1, FITC-KLH immunized Balb/c mice
  effect on tumor volume (FIG. 1): act synergistically with low dose radiation to eliminate tumors
M109 cells [2]; folate-FITC plus IL-2 and IFN-α, radiation three doses of three Gy on days 1, 5, and 12
  effect on tumor volume (FIG. 2): synergistic with low dose radiation to eliminate tumors
M109 cells [2]; folate-FITC plus IL-2 and IFN-α, radiation three doses of three Gy on days 1, 5, and 12, 4 mice per group
  mice tumor-free at the end of the assay: Two out of the four mice
M109 tumors
  effect on tumor mass in combination with taxol (FIG. 5): not synergistic with taxol
